Patent publication US10703784B2, “Antigens and epitopes derived from Mycobacterium tuberculosis” (priority 2011, dated 2020)
“And” between values parts separate entries of the source, which are not always exact repeats. Equal values may be shown once. Read-outs that look alike come from different tables or passages of the source.

Key:
Assay type in all cases: cell-based, human
[1] = test system: PBMCs depleted of CD4+ or CD8+ T cells
[2] = test system: PBMCs from LTBI donors (IFN-γ production); details: for Resp. freq.: fraction of 28 LTBI donors responding to epitopes of the antigen; for Resp. freq. / Total SFC: ex vivo IFN-γ ELISPOT; for Total SFC: total spot-forming cells, LTBI donors
[3] = test system: CD4-purified cells from LTBI donors; details: range over donors analyzed
[4] = phenotype of the responding T cells per donor, n.d. = assay not done
[5] = individual MTB epitope peptide, one value per responding LTBI donor

AAIHEMFVNTLVASS
T cell phenotype [1, 4]: CD8 and undetectable (2×) | SFC [2, 5]: 41.7 and 160.0 and 26.7 and 61.7

AAIHEMFVNTLQMSS
T cell phenotype [1, 4]: CD8 | SFC [2, 5]: 25.0 and 165.0

IQARAAALAFEQAYA
T cell phenotype [1, 4]: CD4 and undetectable | SFC [2, 5]: 23.3 and 33.3

AALPLLFFALAGQRI
T cell phenotype [1, 4]: CD4 (3×) and undetectable (2×) | SFC [2, 5]: 81.7 and 36.7 and 33.3 and 143.3 and 45.0

ELFVAAYVPYVAWLV
T cell phenotype [1, 4]: undetectable | SFC [2, 5]: 25.0 and 20.0 and 30.0 and 21.7 and 28.3

LALVGFLGGLITGIS
T cell phenotype [1, 4]: CD4 and undetectable (3×) | SFC [2, 5]: 65.0 (2×) and 36.7 and 25.0

GQNYTYKWETFLTRE
T cell phenotype [1, 4]: CD4 and undetectable (4×) | SFC [2, 5]: 26.7 and 66.7 and 50.0 (2×) and 33.3

RGKVVLIDFWAYPCI
T cell phenotype [1, 4]: undetectable | SFC [2, 5]: 35.0

AAGGWDSLAAELATT
T cell phenotype [1, 4]: CD4 and undetectable | SFC [2, 5]: 130.0 and 31.7

FGQNTASIAATEAQY
T cell phenotype [1, 4]: CD4 | SFC [2, 5]: 110.0 and 26.7

DYVRMWVQAATVMSA
T cell phenotype [1, 4]: CD4 (3×) and CD4/CD8 and undetectable | SFC [2, 5]: 343.3 and 38.3 and 31.7 and 81.7 and 28.3

AEAPAAAAAPEEQVQ
T cell phenotype [1, 4]: CD4 | SFC [2, 5]: 20.0

ILPIAEMSVVAMEFG
T cell phenotype [1, 4]: CD4 and undetectable (2×) | SFC [2, 5]: 111.7 and 26.7 and 33.3

GWIISNIFGAIPVLG
T cell phenotype [1, 4]: CD4 and undetectable (3×) | SFC [2, 5]: 195.0 and 41.7 and 58.3 and 26.7

AATQARAAAAAFEAA
T cell phenotype [1, 4]: undetectable | SFC [2, 5]: 25.0

AWMSAAAAQAEQAAT
T cell phenotype [1, 4]: undetectable | SFC [2, 5]: 25.0

AGCQTYKWETFLTSE
T cell phenotype [1]: CD4 and undetectable | SFC [2]: 60.0 and 55.8 and 36.7 and 51.7

DPMVQIPRLVANNTR
T cell phenotype [1, 4]: undetectable | SFC [2, 5]: 60.0

GEEYLILSARDVLAV
T cell phenotype [1, 4]: CD4 (4×) and undetectable (2×) | SFC [2, 5]: 136.7 and 60.0 and 145.0 and 151.7 and 45.0 and 53.3

GTVVLTATFALGAAL
T cell phenotype [1, 4]: CD4 (2×) and undetectable (2×) | SFC [2, 5]: 33.3 and 128.3 and 71.7 and 30.0

MSQIMYNYPAMMAHA (listed as Mycobacterium tuberculosis) [Rv0288/Rv3019c]
effector memory T cells among tetramer+ cells [3]: 4.8-17.2% | naïve (CCR7+CD45RA+) among tetramer+ cells [3]: 9.8-37.1%

FVQALTTAAASYASV
T cell phenotype [1, 4]: undetectable | SFC [2, 5]: 26.7 and 23.3

AVLVATNFFGINTIP
T cell phenotype [1]: CD4 and undetectable

FFGQNTAAIAATEAQ
T cell phenotype [1, 4]: CD4 | SFC [2, 5]: 193.3 and 165.0

LSPISNMVSMANNHM
T cell phenotype [1, 4]: CD4 and undetectable (3×) | SFC [2, 5]: 70.0 and 115.0 and 43.3 and 28.3

MSFVTTQPEALAAAA
T cell phenotype [1, 4]: CD4 | SFC [2, 5]: 121.7

AYGSFVRTVSLPVGA
T cell phenotype [1, 4]: CD4 | SFC [2, 5]: 271.7 and 45.0

APQINFFYYLGEPIV
T cell phenotype [1, 4]: undetectable | SFC [2, 5]: 20.0

APYVAWMRATAIQAE
T cell phenotype [1, 4]: undetectable | SFC [2, 5]: 41.7

EIVQFLEETFAAYDQ
T cell phenotype [1, 4]: CD4 (3×) and undetectable | SFC [2, 5]: 103.3 and 105.0 and 25.0 and 80.0

SSYAATEVANAAAAS
T cell phenotype [1, 4]: CD4 | SFC [2, 5]: 60.0

MHVSFVMAYPEMLAA
T cell phenotype [1, 4]: CD4 | SFC [2, 5]: 165.0 and 290.0 and 181.7 and 283.3

FGQNTGAIAAAEARY
T cell phenotype [1, 4]: CD4 | SFC [2, 5]: 108.3 and 276.7

LAAAAAWDALAAELY
T cell phenotype [1, 4]: CD4 | SFC [2, 5]: 170.0 and 78.3 and 411.7

GWSSLGREYAAVAEE
T cell phenotype [1, 4]: CD4 | SFC [2, 5]: 185.0

IVQINGRHFDLRAQG
T cell phenotype [1, 4]: undetectable | SFC [2, 5]: 26.7

LAWLVQASANSAAMA
T cell phenotype [1, 4]: undetectable | SFC [2, 5]: 25.0

LLEFAVVLELAILSI
T cell phenotype [1, 4]: undetectable | SFC [2, 5]: 26.7

YASVEAANASPLQVA
T cell phenotype [1, 4]: undetectable | SFC [2, 5]: 35.0

ADYLRMWIQAATVMS
T cell phenotype [1, 4]: CD4 (5×) and undetectable | SFC [2, 5]: 375.0 and 35.0 and 128.3 and 48.3 and 26.7 and 75.0

ALQSHDDVALVSVMW
T cell phenotype [1, 4]: CD4 and undetectable | SFC [2, 5]: 28.3 and 61.7

INLIIHYVDRPGALG
T cell phenotype [1, 4]: undetectable | SFC [2, 5]: 31.7

AAASWDALAAELASA
T cell phenotype [1, 4]: CD4 | SFC [2, 5]: 217.5 and 130.0 and 440.8

AQLSQLISLLPSTLQ
T cell phenotype [1, 4]: undetectable | SFC [2, 5]: 50.0 and 51.7 and 23.3

ALSAEYAAVAQELSV
T cell phenotype [1, 4]: CD4 | SFC [2, 5]: 31.7 and 46.7

FGQNTSAIAAAEAQY
T cell phenotype [1, 4]: CD4 | SFC [2, 5]: 161.7 and 176.7

SARLRLLRDRLVEGV
T cell phenotype [1, 4]: CD4 and undetectable | SFC [2, 5]: 138.3 and 23.3

AQNGVQAMSSLGSSL
T cell phenotype [1, 4]: CD4 | SFC [2, 5]: 46.7

AELMILIATNLLGQN
T cell phenotype [1, 4]: CD4 and undetectable | SFC [2, 5]: 33.3 and 90.0

ALLPRAGAAAAAALP
T cell phenotype [1, 4]: CD4 | SFC [2, 5]: 45.0 and 26.7

LGGLWTAVSPHLSPL
T cell phenotype [1, 4]: CD4 | SFC [2, 5]: 38.3 and 25.0

YVAWMSATAALAREA
T cell phenotype [1, 4]: CD4 (3×) and undetectable | SFC [2, 5]: 150.0 and 83.3 and 58.3 and 25.0

PSPSMGRDIKVQFQS
T cell phenotype [1, 4]: undetectable | SFC [2, 5]: 45.0 and 46.7

WFINWYLPISQLFYN
T cell phenotype [1, 4]: undetectable | SFC [2, 5]: 40.0

ALSRVHSMFLGTGGS
T cell phenotype [1, 4]: CD4 | SFC [2, 5]: 71.7 and 43.3

YAAALVAMPTLAELA
T cell phenotype [1, 4]: undetectable | SFC [2, 5]: 25.0

QVPSASMGRDIKVQF
T cell phenotype [1, 4]: undetectable | SFC [2, 5]: 53.3 and 48.3

AQIYQAVSAQAAAIH
T cell phenotype [1, 4]: CD4 | SFC [2, 5]: 225.0 and 86.7

AAVPAVGAAAGAPAA
T cell phenotype [1, 4]: CD4 (2×) and undetectable (2×) | SFC [2, 5]: 203.3 and 28.3 and 20.0 and 30.0

GINTIPIAINEAEYV
T cell phenotype [1, 4]: CD4 (2×) and undetectable | SFC [2, 5]: 120.0 and 201.7 and 20.0 and 118.3

GAMVATNFFGINTIP
T cell phenotype [1]: CD4 and undetectable

B1: Rv0290: MTB protein, novel CD4 T cell antigen; Cell wall and cell processes, Island 1, Esx-3 (protein, listed as Mycobacterium tuberculosis)
chain: MSGTVMQIVRVAILADSRLTEMALPAELPLREILPAVQRLVVPSAQNGDGGQADSGAAVQLSLAPVGGQPFSLDASLDTVGVVDGDLLVLQPVPAGPAAPGIVEDIADAAMIFSTSRLKPWGIAHIQRGALAAVIAVALLATGLTVTYRVATGVLAGLLAVAGIAVASALAGLLITIRSPRSGIALSIAALVPIGAALALAVPGKFGPAQVLLGAAGVAAWSLIALMIPSAERERVVAFFTAAAVVGASVALAAGAQLLWQLPLLSIGCGLIVAALLVTIQAAQLSALWARFPLPVIPAPGDPTPSAPPLRLLEDLPRRVRVSDAHQSGFIAAAVLLSVLGSVAIAVRPEALSVVGWYLVAATAAAATLRARVWDSAACKAWLLAQPYLVAGVLLVFYTATGRYVAAFGAVLVLAVLMLAWVVVALNPGIASPESYSLPLRRLLGLVAAGLDVSLIPVMAYLVGLFAWVLNR
Resp. freq. [2]: 29% | Total SFC [2]: 1552 SFC

B2: Rv2490c: MTB protein, novel CD4 T cell antigen; PE/PPE (protein, listed as Mycobacterium tuberculosis)
chain: MQSMSFDPAVADIGSQVVNNAFQGLQAGAVAWVSLSSLLPAGAEEVSAWAVTAFTTAATGLLALNQAAQEELRKAGEVFTAIARMYSDADVRAAACLLEAIPRPGQTLARE
Resp. freq. [2]: 11% | Total SFC [2]: 64 SFC

B3: Rv3024c: MTB protein, novel CD4 T cell antigen; Information pathways, Island 2 (protein, listed as Mycobacterium tuberculosis)
chain: MKVLAAMSGGVDSSVAAARMVDAGHEVVGVHMALSTAPGTLRTGSRGCCSKEDAADARRVADVLGIPFYVWDFAEKFKEDVINDFVSSYARGETPNPCVRCNQQIKFAALSARAVALGFDTVATGHYARLSGGRLRRAVDRDKDQSYVLAVLTAQQLRHAAFPIGDTPKRQIRAEAARRGLAVANKPDSHDICFIPSGNTKAFLGERIGVRRGVVVDADGVVLASHDGVHGFTIGQRRGLGIAGPGPNGRPRYVTAIDADTATVHVGDVTDLDVQTLTGRAPVFTAGAAPSGPVDCVVQVRAHGETVSAVAELIGDALFVQLHAPLRGVARGQTLVLYRPDPAGDEVLGSATIAGASGLSTGGNPGA
Resp. freq. [2]: 32% | Total SFC [2]: 1630 SFC

B4: Rv1441c: MTB protein, novel CD4 T cell antigen; PE/PPE (protein, listed as Mycobacterium tuberculosis)
chain: MSNVMVVPGMLSAAAADVASIGAALSAANGAAAPTTAGVLAAGADEVSAAIASLFSGYARDYQALSAQMARFHQQFVQALTASVGSYAAAEAANASPLQALEQQVLAAINAPTQTLLGRPLIGNGADGLPGQNGGAGGLLWGNGGNGGAGDAAHPNGGNGGDAGMFGNGGAGGAGYSPAAGTGAAGGAGGAGGAGGWLSGNGGAGGNGGTGASGADGGGGLPPVPASPGGNGGGGDAGGAAGMFGTGGAGGTGGDGGAGGAGDSPNSGANGARGGDGGNGAAGGAGGRLFGNGGAGGNGGTAGQGGDGGTALGAGGIGGDGGTGGAGGTGGTAGIGGSSAGAGGAGGDGGAGGTGGGSSMIGGKGGTGGNGGVGGTGGASALTIGNGSSAGAGGAGGAGGTGGTGGYIESLDGKGQAGNGGNGGNGAAGGAGGGGTGAGGNGGAGGNGGDGGPSQGGGNPGFGGDGGTGGPGGVGVPDGIGGANGAQGKHG
Resp. freq. [2]: 11% | Total SFC [2]: 86 SFC
